In patent US11040952B2, “Phthalazinone compound, method for preparation thereof, pharmaceutical composition thereof, and use thereof” (SHANGHAI INSTITUTE OF MATERIA MEDICA, CHINESE ACADEMY OF …, priority 2017, dated 2021):

Columns and labels:
[1] = MTT assay for cytotoxicity; assay type: cell-based, Human; conditions: human, HepG2.2.15 cells, half (50%) lethal concentration
Procedure: (§1) Human hepatoblastoma cell line HepG2.2.15 stably transfected with full-length HBV (provided by Shanghai Institute of Materia Medica, Chinese Academy of Sciences)
(§2) HepG2.2.15 cells were cultured and passaged according to conventional methods. DMEM containing 10% (v/v) bovine serum and the selective antibiotic G418 was used as a medium, the cells were cultured in an incubator at 37° C. under 5% CO2 for 8 days (the medium was exchanged on the 4th day).
(§3) The test compounds were formulated with DMSO into a 40 mM stock solution, which was then prepared into a solution at the defined highest concentration using a DMEM medium containing 10% Hyclone™ Fetal Bovine Serum, followed by diluting the same; the positive drug was lamivudine, which was also prepared into a solution at the defined concentration with the DMEM medium containing 10% Hyclone™ Fetal Bovine Serum.
HepG2.2.15 cells were seeded at 5×10^3 cells/well in a 96-well plate, and cultured for eight days in the presence of the compounds according to the above method, and then 200 μl of the supernatant was taken out, followed by addition of the MTT solution. After 4 hours of culture, a lysate was added. After 12 hours of culture, the OD570 was measured on a microplate reader. By comparing with the absorbance of the control well, the percentage of viable cells was calculated, and CC50, the concentration required for the reduction of cell viability by 50%, was calculated.

HBV = HBV DNA content in the supernatant of cell culture (real-time PCR); assay type: cell-based, hepatitis B virus (HBV); conditions: Hepatitis B virus, HepG2.2.15, 192 h, inhibition of HBV DNA replication, HepG2.2.15 supernatant, 8 days
Procedure: as §1, §2, §3
HepG2.2.15 cells were treated with compounds at different concentrations for 8 days (the medium was exchanged on the 4th day), and the supernatant was aspirated, and the HBV DNA contained in the mature virus particles in the supernatant was quantitated by using a real-time PCR method.
1) The supernatant DNA from a 96-well plate, 200 μl/well, was collected, wherein the contents in the duplicate wells were collected into a same EP tube, and centrifuged at 4000 rcf for 5 min, and the supernatant was collected;
2) 200 μl of the supernatant was added into a 1.5 ml EP tube, added with 20 μl of proteinase K and 200 μl of Buffer AL (Qiagen, DNeasy® Blood & Tissue Kit), vortexed to be mixed thoroughly, and incubated at 56° C. for 10 min;
3) 200 μl of ethanol was added and vortexed to be mixed thoroughly;
4) all the liquid obtained from step 3) was added into a DNeasy Mini spin column (Qiagen, DNeasy® Blood & Tissue Kit) placed in a 2 ml waste liquid collection tube, and centrifuged at 6000 rcf for 1 min, and the supernatant was discarded;
5) the DNeasy Mini spin column was placed in a new 2 ml waste liquid collection tube, added with 500 μl of Buffer AW1 (Qiagen, DNeasy® Blood & Tissue Kit), and centrifuged at 6000 rcf for 1 min, and the supernatant was discarded;
6) the DNeasy Mini spin column was placed in a new 2 ml waste liquid collection tube, added with 500 μl of Buffer AW2, (Qiagen, DNeasy® Blood & Tissue Kit), and centrifuged at 20000 rcf for 3 min, and the supernatant was discarded;
7) the DNeasy Mini spin column was placed in anew 1.5 ml EP tube, 50 μl of Buffer AE (Qiagen, DNeasy® Blood & Tissue Kit) was pipetted and directly applied onto the membrane of the DNeasy Mini spin column, which was then left at room temperature for 5 min, and centrifuged at 6000 rcf for 1 min to elute the DNA from the membrane, the DNeasy Mini spin column was discarded, and the DNA sample was collected and stored at −20° C.
1) Standard curve: 1e^7-1e^4 IU/ml, the sample amount was 1 μl, a blank well was set so as to check whether the reaction system is polluted or not;
2) 1 μl of a DNA sample was added in sequence;
3) Addition of enzyme and reaction buffer: two tubes of the reaction solution were first added into the enzyme, mixed well and centrifuged slightly, placed on ice, added with the sample, followed by addition of 19 μl of the enzyme reaction solution, wherein, during the addition, the DNA sample should be sure of not being touched to cause contamination;
4) the sample was sealed with a sealing film and centrifuged;
Stage 2: 10 cycles • Step 1: 93° C., 45 s • Step 2: 55° C., 1 min Stage 3: 45 cycles • Step 1: 93° C., 30 s • Step 2: 55° C., 45 s
Detection: data were collected after completing the step 2 (55° C., 45 s) of the stage 3.
The experimental data were processed by using the Origin software and IC50 was calculated.

SMILES	CC50 at 8 days [1] [nM]	IC50 (HBV) [nM]
COCCNc1ccc(-c2nn(Cc3ccc(C#N)cc3)c(=O)c3ccccc23)c(F)n1 [IV-26]	> 100000	430
N#Cc1ccc(Cn2nc(-c3ccc(NCCCO)nc3F)c3ccccc3c2=O)cc1 [IV-66]	94000	180
N#Cc1ccc(Cn2nc(-c3cc(Cl)c(NCCC(=O)O)nc3F)c3ccccc3c2=O)cc1 [IV-63]	> 100000	262
COCCCNc1ccc(-c2nn(Cc3ccc(C#N)cc3)c(=O)c3ccccc23)c(F)n1 [IV-32]	43700	191
CC(C)(C)OC(=O)COCCNc1nc(F)c(-c2nn(Cc3ccc(C#N)cc3)c(=O)c3ccccc23)cc1Cl [IV-59]	> 100000	780
O=c1c2ccccc2c(-c2c(F)cc(F)nc2F)nn1Cc1ccc(Cl)cc1 [Compound I-23]	> 100000	600
CC1(C)OCC(CNc2ccc(-c3nn(Cc4ccc(C#N)cc4)c(=O)c4ccccc34)c(F)n2)O1 (stereo not drawn) [IV-78]	> 100000	341
CN(C)c1ccc(-c2nn(Cc3ccc(C#N)cc3)c(=O)c3ccccc23)c(F)n1 [IV-9]	> 100000	1300
CN(C)c1ccc(-c2nn(Cc3ccc(Cl)cc3)c(=O)c3ccccc23)c(F)n1 [Compound I-13]	32700	1200
CCOCCNc1ccc(-c2nn(Cc3ccc(C#N)cc3)c(=O)c3ccccc23)c(F)n1 [IV-41]	> 100000	325
N#Cc1ccc(Cn2nc(-c3cc(Cl)c(NCCCC(=O)O)nc3F)c3ccccc3c2=O)cc1 [IV-52]	> 100000	84.5
N#Cc1ccc(Cn2nc(-c3cc(Cl)c(NCCO)nc3F)c3ccccc3c2=O)cc1 [IV-77]	32100	27.7
COCCOCCOCCNc1nc(F)c(-c2nn(Cc3ccc(C#N)cc3)c(=O)c3ccccc23)cc1Cl [IV-50]	> 100000	9.65
N#Cc1ccc(Cn2nc(-c3ccc(CN4CCOCC4)nc3F)c3ccccc3c2=O)cc1 [IV-24]	> 100000	350
Cc1ccc(-c2nn(Cc3ccc(Cl)cc3)c(=O)c3cc(F)c(F)cc23)c(F)n1 [Compound V-2]	> 100000	300
N#Cc1ccc(Cn2nc(-c3ccc(NC4COC4)nc3F)c3ccccc3c2=O)cc1 [IV-16]	88300	1000
CCNCCCCNc1nc(F)c(-c2nn(Cc3ccc(C#N)cc3)c(=O)c3ccccc23)cc1Cl [IV-55]	2560	90
CC(C)(C)OC(=O)COCCNc1ccc(-c2nn(Cc3ccc(C#N)cc3)c(=O)c3ccccc23)c(F)n1 [IV-58]	> 100000	5300
O=c1c2ccccc2c(-c2ccc(N3CCC3)nc2F)nn1Cc1ccc(Cl)cc1 [Compound I-18]	42900	1200
CCOCCCNc1ccc(-c2nn(Cc3ccc(C#N)cc3)c(=O)c3ccccc23)c(F)n1 [IV-43]	89800	288
O=c1c2ccccc2c(-c2ccc(C(F)(F)F)nc2F)nn1Cc1ccc(Cl)cc1 [Compound I-19]	77500	200
N#Cc1ccc(Cn2nc(-c3cc(Cl)cnc3F)c3ccccc3c2=O)cc1 [Compound I-40]	> 100000	51
CCOCCOCCNc1nc(F)c(-c2nn(Cc3ccc(C#N)cc3)c(=O)c3ccccc23)cc1Cl [IV-57]	≥ 100000	87.8
CCOC(=O)CCCNc1ccc(-c2nn(Cc3ccc(C#N)cc3)c(=O)c3ccccc23)c(F)n1 [IV-35]	> 100000	1230

SMILES	CC50 at 8 days [1] [nM]	IC50 (HBV) [nM]
[2H]C([2H])([2H])OC([2H])([2H])c1ccc(-c2nn(Cc3ccc(Cl)cc3)c(=O)c3ccccc23)c(F)n1 [Compound I-36]	89000	1500
COC(=O)CCCNc1nc(F)c(-c2nn(Cc3ccc(C#N)cc3)c(=O)c3ccccc23)cc1Cl [IV-65]	> 100000	116
Cc1ncc(-c2nn(Cc3ccc(Cl)cc3)c(=O)c3ccccc23)cn1 [II-4]	97600	7100
COCc1ccc(-c2nn(Cc3ccc(C#N)cc3)c(=O)c3ccccc23)c(F)n1 [IV-22]	> 100000	3500
N#Cc1ccc(Cn2nc(-c3ccc(C4CC4)nc3F)c3ccccc3c2=O)cc1 [IV-19]	> 100000	270
N#Cc1ccc(Cn2nc(-c3ccc(CO)nc3F)c3ccccc3c2=O)cc1 [IV-20]	> 100000	300
[2H]C(c1ccc(C#N)cc1)n1nc(-c2ccc(F)nc2F)c2ccccc2c1=O (stereo not drawn) [IV-17]	> 100000	130
CCOC(=O)CCNc1nc(F)c(-c2nn(Cc3ccc(C#N)cc3)c(=O)c3ccccc23)cc1Cl [IV-71]	> 100000	2780
Cc1ccc(-c2nn(Cc3ccc(C#N)cc3)c(=O)c3ccccc23)c(F)n1 [IV-6]	> 100000	800
CC(O)CNc1nc(F)c(-c2nn(Cc3ccc(C#N)cc3)c(=O)c3ccccc23)cc1Cl (stereo not drawn) [IV-82]	71900	209
N#Cc1ccc(Cn2nc(-c3cc(Cl)c(NCCCCO)nc3F)c3ccccc3c2=O)cc1 [IV-69]	25000	8.1
COC(=O)CCCNc1ccc(-c2nn(Cc3ccc(C#N)cc3)c(=O)c3ccccc23)c(F)n1 [IV-64]	> 100000	1220
COCCOc1ccc(-c2nn(Cc3ccc(C#N)cc3)c(=O)c3ccccc23)c(F)n1 [IV-31]	109000	452
CN(C)Cc1ccc(-c2nn(Cc3ccc(C#N)cc3)c(=O)c3ccccc23)c(F)n1 [IV-21]	> 100000	1300
CC(C)(C)Nc1ccc(-c2nn(Cc3ccc(Cl)cc3)c(=O)c3ccccc23)c(F)n1 [Compound I-14]	10300	2100
O=c1c2ccccc2c(-c2ccc(CN3CCOCC3)nc2F)nn1Cc1ccc(Cl)cc1 [Compound I-29]	> 100000	4600
CC(C)(C)OC(=O)CCNc1ccc(-c2nn(Cc3ccc(C#N)cc3)c(=O)c3ccccc23)c(F)n1 [IV-61]	195000	465
N#Cc1ccc(Cn2nc(-c3cc(CN4CCOCC4)cnc3F)c3ccccc3c2=O)cc1 [Compound I-45]	> 100000	2020
N#Cc1ccc(Cn2nc(-c3ccc(N4CCC4)nc3F)c3ccccc3c2=O)cc1 [IV-11]	98500	400
CN(C)CCCCNc1ccc(-c2nn(Cc3ccc(C#N)cc3)c(=O)c3ccccc23)c(F)n1 [IV-40]	18600	660
CC(=O)OCc1ccc(-c2nn(Cc3ccc(Cl)cc3)c(=O)c3ccccc23)c(F)n1 [Compound I-28]	73100	1000
Nc1ncc(-c2nn(Cc3ccc(Cl)cc3)c(=O)c3ccccc23)cn1 [II-1]	41500	3800
CCNCCNc1nc(F)c(-c2nn(Cc3ccc(C#N)cc3)c(=O)c3ccccc23)cc1Cl [IV-48]	7380	516
N#Cc1ccc(Cn2nc(-c3ccc(NCCO)nc3F)c3ccccc3c2=O)cc1 [IV-76]	> 100000	202
